Results as given in paper PMC9848257, “Design and synthesis of novel rigid dibenzo[b,f]azepines through ring closure technique as promising anticancer candidates against leukaemia and acting as selective topoisomerase II inhibitors and DNA intercalators” (Journal of Enzyme Inhibition and Medicinal Chemistry, 2023).

Assays:
Type in all cases: cell-based
[1] = test system: CCRF-CEM; test: NCI-60 one-dose screen, CCRF-CEM; conditions: Homo sapiens, leukaemia, single dose 10 μM, read-out: Growth inhibition %
Experimental: (§1) Anti-proliferative effects of the counterparts 4a–g and 5a–g were screened against 60 human cancer cell lines, following the Developmental Therapeutics Program protocol, National Cancer Institute[35].
(§2) The anti-tumour activity of the fourteen synthesised congeners was investigated at the NCI against a panel of 60 cancer cell lines (NCI-60 Cell One-Dose Screen). The tested dibenzo[b,f]azepine derivatives were screened at a single dose level (10 μM), Table 1.

[2] = test system: SR; test: NCI-60 one-dose screen, SR; conditions: Homo sapiens, leukaemia, single dose 10 μM, read-out: Growth inhibition %
Experimental: as §1, §2

[3] = test system: EKVX; test: NCI-60 one-dose screen, EKVX; conditions: Homo sapiens, non-small cell lung cancer, single dose 10 μM, read-out: Growth inhibition %
Experimental: as §1, §2

[4] = test system: HOP-62; test: NCI-60 one-dose screen, HOP-62; conditions: Homo sapiens; HOP-62, non-small cell lung cancer; single dose 10 μM; read-out: Growth inhibition %
Experimental: as §1, §2

[5] = test system: NCI-H226; test: NCI-60 one-dose screen, NCI-H226; conditions: Homo sapiens; NCI-H226, non-small cell lung cancer; single dose 10 μM; read-out: Growth inhibition %
Experimental: as §1, §2

[6] = test system: NCI-H23; test: NCI-60 one-dose screen, NCI-H23; conditions: Homo sapiens; NCI-H23, non-small cell lung cancer; single dose 10 μM; read-out: Growth inhibition %
Experimental: as §1, §2

[7] = test system: NCI-H322M; test: NCI-60 one-dose screen, NCI-H322M; conditions: Homo sapiens, non-small cell lung cancer, single dose 10 μM, read-out: Growth inhibition %
Experimental: as §1, §2

[8] = test system: COLO 205; test: NCI-60 one-dose screen, COLO 205; conditions: Homo sapiens; COLO 205, colon cancer; single dose 10 μM; read-out: Growth inhibition %
Experimental: as §1, §2

[9] = test system: HCC-2998; test: NCI-60 one-dose screen, HCC-2998; conditions: Homo sapiens; HCC-2998, colon cancer; single dose 10 μM; read-out: Growth inhibition %
Experimental: as §1, §2

[10] = test system: HCT-116; test: NCI-60 one-dose screen, HCT-116; conditions: Homo sapiens; HCT-116, colon cancer; single dose 10 μM; read-out: Growth inhibition %
Experimental: as §1, §2

[11] = test system: HT29; test: NCI-60 one-dose screen, HT29; conditions: Homo sapiens, HT-29; HT29, colon cancer; single dose 10 μM; read-out: Growth inhibition %
Experimental: as §1, §2

[12] = test system: SW-620; test: NCI-60 one-dose screen, SW-620; conditions: Homo sapiens; SW-620, colon cancer; single dose 10 μM; read-out: Growth inhibition %
Experimental: as §1, §2

[13] = test system: SF-268; test: NCI-60 one-dose screen, SF-268; conditions: Homo sapiens; SF-268, CNS cancer; single dose 10 μM; read-out: Growth inhibition %
Experimental: as §1, §2

[14] = test system: SF-539; test: NCI-60 one-dose screen, SF-539; conditions: Homo sapiens; SF-539, CNS cancer; single dose 10 μM; read-out: Growth inhibition %
Experimental: as §1, §2

[15] = test system: U251; test: NCI-60 one-dose screen, U251; conditions: Homo sapiens, U-251; U251, CNS cancer; single dose 10 μM; read-out: Growth inhibition %
Experimental: as §1, §2

[16] = test system: MALME-3M; test: NCI-60 one-dose screen, MALME-3M; conditions: Homo sapiens, melanoma, single dose 10 μM, read-out: Growth inhibition %
Experimental: as §1, §2

[17] = test system: M14; test: NCI-60 one-dose screen, M14; conditions: Homo sapiens; M14, melanoma; single dose 10 μM; read-out: Growth inhibition %
Experimental: as §1, §2

[18] = test system: MDA-MB-435; test: NCI-60 one-dose screen, MDA-MB-435; conditions: Homo sapiens; MDA-MB-435, melanoma; single dose 10 μM; read-out: Growth inhibition %
Experimental: as §1, §2

[19] = test system: SK-MEL-28; test: NCI-60 one-dose screen, SK-MEL-28; conditions: Homo sapiens; SK-MEL-28, melanoma; single dose 10 μM; read-out: Growth inhibition %
Experimental: as §1, §2

[20] = test system: SK-MEL-5; test: NCI-60 one-dose screen, SK-MEL-5; conditions: Homo sapiens; SK-MEL-5, melanoma; single dose 10 μM; read-out: Growth inhibition %
Experimental: as §1, §2

[21] = test system: UACC-257; test: NCI-60 one-dose screen, UACC-257; conditions: Homo sapiens; UACC-257, melanoma; single dose 10 μM; read-out: Growth inhibition %
Experimental: as §1, §2

[22] = test system: UACC-62; test: NCI-60 one-dose screen, UACC-62; conditions: Homo sapiens; UACC-62, melanoma; single dose 10 μM; read-out: Growth inhibition %
Experimental: as §1, §2

[23] = test system: OVCAR-3; test: NCI-60 one-dose screen, OVCAR-3; conditions: Homo sapiens; OVCAR-3, ovarian cancer; single dose 10 μM; read-out: Growth inhibition %
Experimental: as §1, §2

[24] = test system: OVCAR-4; test: NCI-60 one-dose screen, OVCAR-4; conditions: Homo sapiens; OVCAR-4, ovarian cancer; single dose 10 μM; read-out: Growth inhibition %
Experimental: as §1, §2

[25] = test system: NCI/ADR-RES; test: NCI-60 one-dose screen, NCI/ADR-RES; conditions: Homo sapiens, ovarian cancer, single dose 10 μM, read-out: Growth inhibition %
Experimental: as §1, §2

[26] = test system: 786-0; test: NCI-60 one-dose screen, 786-0; conditions: Homo sapiens; 786-0, renal cancer; single dose 10 μM; read-out: Growth inhibition %
Experimental: as §1, §2

[27] = test system: CAKI-1; test: NCI-60 one-dose screen, CAKI-1; conditions: Homo sapiens; CAKI-1, renal cancer; single dose 10 μM; read-out: Growth inhibition %
Experimental: as §1, §2

[28] = test system: RXF 393; test: NCI-60 one-dose screen, RXF 393; conditions: Homo sapiens; RXF 393, renal cancer; single dose 10 μM; read-out: Growth inhibition %
Experimental: as §1, §2

[29] = test system: UO-31; test: NCI-60 one-dose screen, UO-31; conditions: Homo sapiens; UO-31, renal cancer; single dose 10 μM; read-out: Growth inhibition %
Experimental: as §1, §2

[30] = test system: PC-3; test: NCI-60 one-dose screen, PC-3; conditions: Homo sapiens; PC-3, prostate cancer; single dose 10 μM; read-out: Growth inhibition %
Experimental: as §1, §2

[31] = test system: DU-145; test: NCI-60 one-dose screen, DU-145; conditions: Homo sapiens; DU-145, prostate cancer; single dose 10 μM; read-out: Growth inhibition %
Experimental: as §1, §2

[32] = test system: MDA-MB-231-ATCC; test: NCI-60 one-dose screen, MDA-MB-231-ATCC; conditions: Homo sapiens, breast cancer, single dose 10 μM, read-out: Growth inhibition %
Experimental: as §1, §2

[33] = test system: HS 578 T; test: NCI-60 one-dose screen, HS 578 T; conditions: Homo sapiens, breast cancer, single dose 10 μM, read-out: Growth inhibition %
Experimental: as §1, §2

[34] = test system: T-47D; test: NCI-60 one-dose screen, T-47D; conditions: Homo sapiens, T47D, breast cancer, single dose 10 μM, read-out: Growth inhibition %
Experimental: as §1, §2

Row | Compound | inhibition at 10 µM [1] [%] | inhibition at 10 µM [2] [%] | inhibition at 10 µM [3] [%] | inhibition at 10 µM [4] [%] | inhibition at 10 µM [5] [%] | inhibition at 10 µM [6] [%] | inhibition at 10 µM [7] [%] | inhibition at 10 µM [8] [%] | inhibition at 10 µM [9] [%] | inhibition at 10 µM [10] [%] | inhibition at 10 µM [11] [%] | inhibition at 10 µM [12] [%] | inhibition at 10 µM [13] [%] | inhibition at 10 µM [14] [%] | inhibition at 10 µM [15] [%] | inhibition at 10 µM [16] [%] | inhibition at 10 µM [17] [%] | inhibition at 10 µM [18] [%] | inhibition at 10 µM [19] [%] | inhibition at 10 µM [20] [%] | also measured
1 | O=C(NNC(=O)N1c2ccccc2C=Cc2ccccc21)c1ccccc1 [Compound 4a, N′-Benzoyl-5H-dibenzo[b,f]azepine-5-carbohydrazide] | < 10 | < 10 | < 10 | < 10 | < 10 | < 10 | < 10 | < 10 | < 10 | < 10 | < 10 | < 10 | < 10 | < 10 | < 10 | < 10 | < 10 | < 10 | < 10 | < 10 | inhibition at 10 µM [21]: < 10%; inhibition at 10 µM [22]: < 10%; inhibition at 10 µM [23]: < 10%; inhibition at 10 µM [24]: < 10%; inhibition at 10 µM [25]: < 10%; inhibition at 10 µM [26]: < 10%; inhibition at 10 µM [27]: < 10%; inhibition at 10 µM [28]: < 10%; inhibition at 10 µM [29]: < 10%; inhibition at 10 µM [30]: < 10%; inhibition at 10 µM [31]: < 10%; inhibition at 10 µM [32]: < 10%; inhibition at 10 µM [33]: < 10%; inhibition at 10 µM [34]: < 10%
2 | O=C(NNC(=O)N1c2ccccc2C=Cc2ccccc21)c1ccc(Br)cc1 [Compound 4b, N′-(4-Bromobenzoyl)-5H-dibenzo[b,f]azepine-5-carbohydrazide] | < 10 | < 10 | < 10 | < 10 | < 10 | < 10 | < 10 | < 10 | < 10 | < 10 | < 10 | 11.8 | 15.1 | < 10 | < 10 | < 10 | < 10 | < 10 | < 10 | < 10 | inhibition at 10 µM [21]: 14.4%; inhibition at 10 µM [22]: < 10%; inhibition at 10 µM [23]: < 10%; inhibition at 10 µM [24]: < 10%; inhibition at 10 µM [25]: < 10%; inhibition at 10 µM [26]: 21.1%; inhibition at 10 µM [27]: < 10%; inhibition at 10 µM [28]: < 10%; inhibition at 10 µM [29]: < 10%; inhibition at 10 µM [30]: < 10%; inhibition at 10 µM [31]: 19.7%; inhibition at 10 µM [32]: < 10%; inhibition at 10 µM [33]: < 10%; inhibition at 10 µM [34]: < 10%
